Reference: article PMC10108345, “Differentiating Inhibition Selectivity and Binding Affinity of Isocitrate Dehydrogenase 1 Variant Inhibitors” (Journal of Medicinal Chemistry, 2023)

Legend:
[1] = biological target: T1, IDH1 R132H (Homo sapiens, UniProt O75874, R132H); assay: Isothermal titration calorimetry (ITC), IDH1 R132H; type: binding; details: 40 μM IDH1, 50 mM tris-HCl pH 7.5, 25 °C
T1 construct: made in house; host or cells: Escherichia coli BL21(DE3) pLyS
Procedure: (§1) ITC was conducted using a Malvern MicroCal PEAQ-ITC Automated machine (Malvern Panalytical). In general, IDH1 was prepared in 50 mM tris–HCl, pH 7.5, and the compounds were dissolved in the same buffer. 400 μL of cell solution containing 40 μM IDH1 [4% (v/v) DMSO] and 200 μL of the titrant containing 200 or 400 μM compound [2% or 4% (v/v) DMSO] were transferred to an ITC plate (Malvern Panalytical WEL020854-010). […] The injection setup consisted of 19 injections, with 1 initial injection of 0.4 μL and 18 subsequent injections of 2.0 μL each with 150 s between the injections. Thermodynamic parameters were obtained using MicroCal PEAQ-ITC analysis software.

[2] = biological target: T2, wt IDH1 (Homo sapiens, UniProt O75874); assay: Ligand-observed 1H NMR (CPMG-edited, 700 MHz) binding, wt IDH1; details: line broadening, 10 μM inhibitor, 50 mM tris-D11-HCl pH 7.5
T2 construct: made in house; host or cells: Escherichia coli BL21(DE3) pLyS
T2 sequence (O75874 whole entry): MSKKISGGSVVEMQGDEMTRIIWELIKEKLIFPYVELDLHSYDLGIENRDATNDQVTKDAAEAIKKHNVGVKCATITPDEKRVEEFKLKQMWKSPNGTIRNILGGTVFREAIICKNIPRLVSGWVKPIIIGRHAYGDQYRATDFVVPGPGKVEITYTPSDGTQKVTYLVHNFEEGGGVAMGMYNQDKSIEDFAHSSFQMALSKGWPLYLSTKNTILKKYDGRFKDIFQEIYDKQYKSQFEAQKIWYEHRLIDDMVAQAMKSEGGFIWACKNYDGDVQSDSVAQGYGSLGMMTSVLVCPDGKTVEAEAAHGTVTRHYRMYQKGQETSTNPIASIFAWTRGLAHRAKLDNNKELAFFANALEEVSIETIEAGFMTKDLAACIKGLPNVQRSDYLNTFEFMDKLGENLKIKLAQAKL
Procedure: (§2) Additional solvent presaturation was applied for 2 s. Samples contained 160 μL of 10 μM compound (0.2% DMSO) in 50 mM tris-D11-HCl, pH 7.5 in 90% H2O/10% D2O (v/v). […] 200 or 400 scans per IDH concentration were recorded, and signals corresponding to the compound were integrated and processed using TopSpin 3.6.1 software.

[3] = biological target: T1, IDH1 R132H; assay: Ligand-observed 1H NMR (CPMG-edited, 700 MHz) binding, IDH1 R132H; details: line broadening, 10 μM inhibitor, 50 mM tris-D11-HCl pH 7.5
Procedure: as §2

[4] = biological target: T2, wt IDH1; assay: Isothermal titration calorimetry (ITC), wt IDH1; type: binding; details: 40 μM IDH1, 50 mM tris-HCl pH 7.5, 25 °C
Procedure: as §1

[5] = biological target: T1, IDH1 R132H; assay: Circular dichroism (CD) melting temperature, IDH1 R132H; type: binding; details: inhibitor 42 μM, IDH 4.2 μM (0.2 mg/mL); read-out: Δ Tm/°C by CD IDH1 R132H
Procedure: (§3) CD spectra were acquired using a Chirascan CD spectrometer (Applied Photophysics) with a Peltier temperature-control cell holder. Experiments were carried out in a 0.1 cm path length quartz cuvette at 20 °C. […] Spectra were averaged (n = 3) and smoothed (window size = 7) using the Savitzky–Golay filter. The mean residue ellipticity (MRE) was calculated according to the formula [drawing 1] where θ is the degree of ellipticity, N is the number of amino acids, c is the concentration (mol/L), and l is the path length (cm).
(§4) Measurements were conducted in 2 °C increments. The melting temperature was calculated using a Boltzmann sigmoidal model in GraphPad Prism v5.04.

[6] = biological target: T2, wt IDH1; assay: Differential scanning fluorimetry (DSF) thermal shift, wt IDH1; type: binding; details: largest change in Tm of IDH1 ([…]) with 3-100 μM inhibitor
Procedure: (§5) Thermal shift experiments were carried out using Sypro Orange and a CFX96 Touch Real-Time PCR Detection System (Bio-Rad) machine.[42] […] The standard assay buffer contains 50 mM tris–HCl at pH 7.5. Various concentrations of compounds (1% DMSO final) were mixed with IDH1 for thermal stabilization studies. […] Bio-Rad CFX Manager was used to determine the melting temperature, Tm.

[7] = biological target: T2, wt IDH1; assay: Absorbance turnover assay (NADPH, 340 nm), wt IDH1-catalyzed conversion of isocitrate to 2OG; type: biochemical; details: wt IDH1 (2 nM), isocitrate to 2OG; 100 mM tris-HCl, 10 mM MgCl2, pH 8.0; read-out: IC50/nM wt IDH1
Procedure: (Figure 3, Scheme 1). […] We employed ^1H NMR (700 MHz) spectroscopy to simultaneously monitor NADPH, NADP^+, 2OG, and 2HG levels (Figure S3) in order to validate observations from the absorbance assays.
IDH1 activities were measured spectrophotometrically by monitoring changes in NADPH absorbance at 340 nm.[10] […] The difference in absorbance, ΔA340, in the linear range of the reaction profile was converted to % residual activity using a DMSO control as the 100% residual activity reference. […] Experiments were performed in (at least) triplicate. The standard assay buffer for IDH1 consists of 100 mM tris–HCl, 10 mM MgCl2, 0.005% (v/v) Tween 20, pH 8.0, 0.2 mM DTT, and 0.1 mg/mL BSA. In general, compounds [25 μL, 0.4% (v/v) DMSO] were pre-incubated with IDH1 (25 μL) for 12 min, followed by addition of DL-isocitrate/2OG (25 μL) and NADP^+/NADPH (25 μL) to initiate the reaction. The substrate/cofactor concentrations were optimized by determining KM values for substrates/cofactors as described.[10]

[8] = biological target: T1, IDH1 R132H; assay: 1H NMR (700 MHz) reaction monitoring, IDH1 R132H-catalysed conversion of 2OG to 2HG; type: biochemical; details: 1 μM IDH1 R132H, 20 μM compound, over […]; in words
Procedure: Nuclear magnetic resonance (NMR) reaction monitoring was performed at 298 K using a Bruker AVIII 700 MHz NMR spectrometer with a 5 mm inverse triple-carbon-inverse (TCI) cryoprobe in 5 mm tubes (Norell). Data were recorded with a relaxation delay of 2 s and 32 scans, employing a pulse sequence with water suppression (^1H excitation sculpting suppression with perfect-echo using a 2 ms Sinc selective inversion pulse). There is a time delay of 184 s between each acquired spectrum over the time-course experiment. Conversion of 2OG to 2HG catalyzed by IDH1 R132H was monitored using 500 μL of 1 μM IDH, 20 μM compound [0.4% (v/v) DMSO, 10 min pre-incubation with IDH], 10 mM MgCl2, 1.5 mM NADPH, and 1.5 mM 2OG, in 50 mM tris-D11-HCl, pH 7.5 in 90% H2O/10% D2O (v/v). Data were processed with TopSpin 3.6.1 software. Signals corresponding to NADPH, NADP^+, 2OG, and 2HG at each time point over a total of 2 to 3 h were integrated, converted to concentrations, and plotted against time. The difference in concentrations in the linear range of the reaction profile was converted to % residual activity with the DMSO control defined as the 100% residual activity reference.

[9] = biological target: T2, wt IDH1; assay: Circular dichroism (CD) melting temperature, wt IDH1; type: binding; details: inhibitor 42 μM, IDH 4.2 μM (0.2 mg/mL); read-out: Δ Tm/°C by CD wt IDH1
Procedure: as §3, §4

[10] = biological target: T1, IDH1 R132H; assay: Differential scanning fluorimetry (DSF) thermal shift, IDH1 R132H; type: binding; details: largest change in Tm of IDH1 ([…]) with 3-100 μM inhibitor
Procedure: as §5

T1 sequence (O75874 whole entry R132H): as the sequence (O75874 whole entry) above, with R132H counted along it

Kd [1]: > 400 µM | Kd [2]: 9.1 µM | Kd [3]: 8.6 µM | Kd [4]: > 400 µM | ΔTm at 42 µM [5]: 7.7 °C | Δ Tm/°C by DSF wt IDH1 [6]: 6.9 °C | IC50 [7]: > 10000 nM | inhibition of IDH1 R132H catalysed conversion of 2OG to 2HG monitored by 1H NMR [8]: weaker inhibition | ΔTm at 42 µM [9]: 2.9 °C | Δ Tm/°C by DSF IDH1 R132H [10]: 6.0 °C
Compound: Cc1ccccc1C(C(=O)NC1CCCCC1)N(C(=O)Cn1ccnc1C)c1cccc(F)c1 (stereo not shown) [AGI-5198]
